Data from PubChem BioAssay (NCI).
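Interpolation was linear, between the two tested concentrations surrounding the appropriate level; five concentrations were tested over 48 hours in 96-well plates. Here, GI50 denotes the concentration required for 50% inhibition of growth. TGI: total growth inhibition.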

Assays:
Assay in all cases: NCI tumour cell line growth inhibition, 48 h
IGROV1 ovarian = test system: IGROV1 ovarian
LXFL 529 NSCLC = test system: LXFL 529 NSCLC
HCC-2998 colon = test system: HCC-2998 colon
SR leukemia = test system: SR leukemia
CCRF-CEM leukemia = test system: CCRF-CEM leukemia
SF-539 CNS = test system: SF-539 CNS
OVCAR-5 ovarian = test system: OVCAR-5 ovarian
DLD-1 colon = test system: DLD-1 colon
DMS 114 small cell lung = test system: DMS 114 small cell lung
DMS 273 small cell lung = test system: DMS 273 small cell lung
RXF 393 renal = test system: RXF 393 renal
MDA-MB-435 = test system: MDA-MB-435

Row | Structure (SMILES) | TGI (IGROV1 ovarian) [µM] | TGI (LXFL 529 NSCLC) [µM] | TGI (HCC-2998 colon) [µM] | TGI (SR leukemia) [µM] | TGI (CCRF-CEM leukemia) [µM] | TGI (SF-539 CNS) [µM] | TGI (OVCAR-5 ovarian) [µM] | TGI (DLD-1 colon) [µM] | TGI (DMS 114 small cell lung) [µM] | TGI (DMS 273 small cell lung) [µM] | TGI (RXF 393 renal) [µM] | TGI (MDA-MB-435) [µM] | GI50 (CCRF-CEM leukemia) [µM]
1 | N=S(=O)(c1ccccc1)c1ccccc1 | > 100 | > 100 | > 100 | > 100 | > 100 | > 100 | > 100 | > 100 | > 100 | – | – | – | –
2 | Brc1c2nc3ccccc3nc2n2ccc3ccccc3c12 | > 100 | > 100 | > 100 | > 100 | > 100 | > 100 | > 100 | > 100 | > 100 | > 100 | – | – | –
3 | C[N+](C)=c1ccc2nc3c(ccc4ccccc43)oc-2c1 | 17.2 | 19.4 | 37.7 | > 100 | 8.53 | 32.2 | 37 | 21.1 | 54.4 | 39.2 | 26 | – | –
4 | N#CNC(=NCc1ccccc1)NCCc1c[nH]c2ccccc12 | > 100 | > 100 | > 100 | > 100 | > 100 | > 100 | > 100 | > 100 | > 100 | > 100 | > 100 | – | –
5 | Cc1c(-c2coc(-c3ccccc3)n2)c(=O)n(-c2ccccc2)n1C | > 100 | > 100 | > 100 | > 100 | > 100 | > 100 | > 100 | > 100 | > 100 | > 100 | – | – | –
6 | C/C=C/c1cc2c(c(=O)o1)C(=O)[C@@H](O)[C@H](C)O2 | 23.3 | – | 24 | – | 53.9 | 33.6 | 31.1 | 20 | 19.1 | 29.7 | 27.2 | – | –
7 | C=C1C2C[C@@H]3OC4CC5O[C@]6(CC5OC4C(C)C3OC(=O)CC3CC[C@@H]4OC5C7OC8C[C@](CCC9CC(=C)[C@H](CCC(C[C@H]1C)O2)O9)(OC7C4O3)O[C@@H]85)C[C@@H]1O[C@@]2(CC(C)[C@@H]3OC(CC(=O)CCO)C(O)C[C@@H]3O2)CC(C)[C@@H]1O6 (stereo partly specified) | 1.37 | 1.19 | < 0.001 | 1.24 | 1.8 | < 0.001 | 0.562 | 1.24 | – | < 0.001 | – | – | –
8 | O=C(NC12CC3CC(CC(C3)C1)C2)C(=O)c1c[nH]c2ccc(Br)cc12 | > 100 | 37.3 | > 100 | 29.6 | > 100 | 51.3 | > 100 | 89 | > 100 | 17.6 | 6.39 | – | –
9 | CO[C@H]1CC[C@]2(C)C3=CC[C@@]4(C)C(CC[C@@H]4C(C)CC[C@@H](C)C(C)C)C(=CCC2C1)O3 (stereo partly specified) | > 25 | > 25 | > 25 | > 25 | > 25 | > 25 | > 25 | > 25 | > 25 | > 25 | > 25 | – | –
10 | Cc1c(OCCCOc2ccc3c(=O)cc(-c4ccccc4)oc3c2C)ccc2c(=O)cc(-c3ccccc3)oc12 | > 100 | > 100 | – | > 100 | > 100 | > 100 | > 100 | > 100 | > 100 | > 100 | > 100 | – | –
11 | C[N+](C)(C)CCOC(=O)/C=C/c1cnc[nH]1 | > 500 | – | > 500 | – | > 500 | > 500 | > 500 | > 500 | > 500 | > 500 | > 500 | – | –
12 | COC1=CC(=O)C2C(C1=O)[C@@H]1c3ccccc3OC(C)(C)[C@H]21 (stereo partly specified) | – | 32.8 | > 100 | – | 65.1 | 58.3 | > 100 | 34 | 40.8 | 40.6 | 27.1 | – | –
13 | N#CCCN(CCC#N)c1ccc(/C=C2\SC(=S)NC2=O)cc1 | > 100 | – | > 100 | > 100 | > 100 | > 100 | > 100 | – | – | – | > 100 | > 100 | –
14 | O=C(/C=C/c1ccc2c(c1)OCO2)NCCc1ccco1 | > 100 | – | > 100 | > 100 | > 100 | > 100 | > 100 | – | – | – | > 100 | > 100 | –
15 | COc1cccc2c1C(=O)c1c(O)c3c(c(O)c1C2=O)C[C@@](O)(C(=O)CN1CCOCC1)C[C@@H]3OC1CC(N)C(O)C(C)O1 (stereo partly specified) | > 90.6 | – | 23.3 | – | > 23.1 | 23.6 | 57.6 | > 74.4 | 21.8 | 20.5 | 23.9 | – | 0.964
16 | Nc1ncnc2c1sc(=S)n2-c1ccccc1 | > 100 | > 100 | > 100 | > 100 | > 100 | > 100 | > 100 | > 100 | > 100 | > 100 | > 100 | – | –
17 | COC1=CC(=O)c2c(cc(COP(N)(=O)N(CCCl)CCCl)n2C)C1=O (stereo unspecified) | 2.66 | – | 2.3 | 1.31 | 8 | 2.19 | 4.21 | – | – | – | 2.95 | 3.2 | –
18 | COc1cc(N)c2[nH]c3c(C)ccc(C)c3c2c1 | – | – | > 100 | > 100 | > 100 | > 100 | > 100 | > 100 | > 100 | > 100 | – | – | –
19 | Oc1cc(Cl)cc2cc(Cl)cnc12 | 22.6 | – | 65.9 | 13.6 | 6.37 | > 100 | > 100 | – | – | – | 48.2 | > 100 | –
20 | COc1cc(OCc2nc3cc(C(F)(F)F)ccc3nc2-c2ccccc2)cc(OC)c1OC | > 100 | – | > 100 | > 100 | > 100 | > 100 | > 100 | – | – | – | 65.8 | > 100 | –
21 | NC(=O)COc1c(Br)cc(Br)cc1Br | – | – | > 100 | > 100 | > 100 | > 100 | > 100 | > 100 | > 100 | > 100 | – | – | –
22 | COC(=O)c1ccccc1NC(=S)NN(C)C | > 100 | – | > 100 | > 100 | > 100 | > 100 | > 100 | – | – | – | > 100 | > 100 | –
23 | Cc1ccc(S(=O)(=O)/N=C2/N(C)CCCS2(=O)=O)cc1 | > 100 | – | > 100 | > 100 | > 100 | > 100 | > 100 | – | – | – | > 100 | > 100 | –
24 | CCCc1n[nH]c(=O)n1N1C(=O)C=CC1=O | > 100 | – | > 100 | > 100 | > 100 | > 100 | > 100 | – | – | – | > 100 | > 100 | –
25 | N=c1n(CC(=O)NC23CC4CC(CC(C4)C2)C3)c2ccccc2n1CC(=O)NC12CC3CC(CC(C3)C1)C2 | 3.1 | 3.46 | 2.65 | 4.51 | 6.23 | 3.36 | 3.08 | 3.5 | 3.67 | 3.35 | 3.17 | – | –
